Target: T1, wild-type mouse TMEM16A (Mus musculus, UniProt Q8BHY3)
T1 construct: expressed in transfected cells; host or cells: HEK293T
T1 sequence (Q8BHY3 1-960): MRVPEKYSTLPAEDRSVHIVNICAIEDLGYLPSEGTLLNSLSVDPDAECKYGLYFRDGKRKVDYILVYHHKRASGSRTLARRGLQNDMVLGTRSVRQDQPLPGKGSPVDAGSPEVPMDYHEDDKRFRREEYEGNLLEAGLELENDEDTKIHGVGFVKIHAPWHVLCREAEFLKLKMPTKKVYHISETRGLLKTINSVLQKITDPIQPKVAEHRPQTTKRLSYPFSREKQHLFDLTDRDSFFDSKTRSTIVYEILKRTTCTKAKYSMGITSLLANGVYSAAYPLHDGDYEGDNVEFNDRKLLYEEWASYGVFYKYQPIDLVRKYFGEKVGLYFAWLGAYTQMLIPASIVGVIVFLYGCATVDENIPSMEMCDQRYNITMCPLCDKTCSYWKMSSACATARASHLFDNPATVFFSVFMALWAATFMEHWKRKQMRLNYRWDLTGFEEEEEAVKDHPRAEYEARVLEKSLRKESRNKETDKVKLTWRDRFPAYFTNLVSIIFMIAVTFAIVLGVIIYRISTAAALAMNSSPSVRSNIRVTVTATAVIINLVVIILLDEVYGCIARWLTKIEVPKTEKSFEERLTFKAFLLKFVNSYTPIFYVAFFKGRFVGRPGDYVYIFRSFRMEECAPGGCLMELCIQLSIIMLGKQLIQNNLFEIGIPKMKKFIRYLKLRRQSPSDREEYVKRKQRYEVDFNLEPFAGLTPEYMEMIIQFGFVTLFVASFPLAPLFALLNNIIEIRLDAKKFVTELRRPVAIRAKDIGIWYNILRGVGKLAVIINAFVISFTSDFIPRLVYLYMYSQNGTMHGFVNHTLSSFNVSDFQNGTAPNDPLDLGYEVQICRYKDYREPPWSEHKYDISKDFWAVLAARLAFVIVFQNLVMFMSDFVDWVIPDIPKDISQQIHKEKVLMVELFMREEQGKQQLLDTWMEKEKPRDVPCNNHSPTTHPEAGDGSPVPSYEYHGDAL
Test: Ultra-fast concentration-jump experiments, kinetics of 1PBC block in inside-out patches
Type: cell-based
Settings: 3 µM 1PBC; excised patches, ultra-fast perfusion
Procedure: HEK293T cells were transfected with 3–4 μg DNA per 6 cm Petri dish using the calcium phosphate co-precipitation method and were used within 24–96 h after transfection. Recordings were performed on inside-out patches excised from HEK293T cells expressing the construct of interest. Patch pipettes were pulled from borosilicate glass capillaries (O.D. 1.5 mm, I.D. 0.86 mm, Sutter Instrument) and were fire-polished with a microforge (Narishige) before use. Pipette resistance was typically 3–8 MΩ when filled with the recording solutions detailed below. Seal resistance was typically 4 GΩ or higher. Voltage-clamp recordings were made using Axopatch 200B, Digidata 1550, and Clampex 10.7 (Molecular Devices). Analog signals were filtered with the in-built 4-pole Bessel filter at 10 kHz and were digitized at 20 kHz. Solution exchange was achieved using a gravity-fed system through a theta glass pipette mounted on an ultra-fast piezo-driven stepper (Siskiyou). […] All recordings were performed at 20 °C.
Supplementary Fig. 2: State dependence of 1PBC block. a, Kinetics of 1PBC block at an intermediate 1PBC concentration and the indicated sub- saturating Ca2+ concentrations in ultra-fast concentration- jump experiments at + 8 0 m V in the inside- out configuration. 1PBC was applied from the intracellular side. […] 6 µM (as determined in Fig. 2a, b) and kon = 1 x 106 M-1s-1. […]

For `N#Cc1c(C(F)(F)F)cc(O)n2c1nc1ccccc12` [1PBC], which “Kinetics of block (time constant)” value is on record?
The value was ~ 50 ms.
